Laboratory results as given in patent US20100267638A1, “EXOSITE-DIRECTED THROMBIN INHIBITORS” (CLEVELAND STATE UNIVERSITY, priority 2003, published 2010).
Entries after “also recorded” stand apart in the source; their conditions may differ. No end group written: not given here.

How the values were obtained:
[1] = biological target: T1, prothrombinase (Homo sapiens, UniProt P00734); experiment: Assay measuring thrombin formation (prothrombinase inhibition by peptides, DAPA fluorescence); format: biochemical
T1 construct: purchased Haematologic Technologies Inc. (Essex Junction, Vt.)

[2] = biological target: T2, active-site-immobilized thrombin (Homo sapiens, UniProt P00734); experiment: Direct binding of the peptides to thrombin-agarose (chromatography); details: 400 μg peptide, 2.5 ml column, elution 2M NaCl
T2 construct: Factor Xa cleaves prothrombin to form thrombin; purchased Haematologic Technologies Inc. (Essex Junction, Vt.)
Protocol: Direct binding of the peptides to thrombin. Thrombin was immobilized onto agarose through the active site as described. Peptide solutions of HC1-HC5 (SEQ ID NO. 2-6, respectively), D13R (SEQ ID NO. 21), DYDYQ (SEQ ID NO. 11), and P15H (SEQ ID NO. 22) were dissolved in water to a given concentration and then diluted in 20 mM Hepes, 0.1 M NaCl, pH 7.4 in a manner that 400 μg was contained in each starting solution. In control experiments it was determined that the maximum amount of peptide that could be retained by the thrombin-agarose column was 400 μg. Since some of the peptides contain aromatic amino acid residues, their concentration was also measured by optical density.
Mass spectrometry instruments and conditions. The identity of all peptides found in the flow-through or the elution of the thrombin-agarose column was verified by mass spectrometry. Since the peptides were in a buffer solution, we used Liquid Chromatography/Mass Spectrometry (LC/MS) for their identification. In this procedure peptides are first separated from the salt content of the buffer using an HPLC system (HP 1100, HPLC gradient system, Agilent Technologies, Palo Alto Calif.) with a C18 column (1 mm×15 cm, GraceVydac, Hesperia Calif.) with buffers A (0.3% acetic acid in water) and B (0.3% acetic acid in acetonitrile). The elution of the column was monitored with a Micromass Quatro II ESI-Triple Quadrupole Mass Spectrometer (Waters, Milford Mass.). The data were collected using a Compaq Professional Workstation AP200 (Hewlett-Packard, Palo Alto Calif.) and analyzed by the software MassLynx v3.3 (Waters, Milford Mass.).
Direct interaction of hirudin-like peptides from factor tor Va heavy chain With thrombin-agarose. To ascertain that the peptides of interest are inhibitory of prothrombinase activity and contain a binding site for thrombin, the interaction of all peptides with active-site-immobilized thrombin was studied in chromatographic experiments and is shown in FIG. 5. In FIG. 5, small scale chromatography of hirudin-like peptides was performed on a 2.5 ml thrombin-agarose. Each run represents 400 μg of peptide. This amount of peptide was determined to saturate the specific sites of thrombin of the column used (2.5 ml). Elution was performed with 2M NaCl and was started at the point indicated by the arrow (fraction #30). The presence of the peptides in the corresponding fractions was monitored by absorbance at 280 nm (shown on the y axis) and by LC/MS (inset). […] Specifically, these peptides were treated similarly to all other peptides and similar fractions were collected. Aliquots from fractions #7 and #35 from each separate experiment were submitted to LC/MS analysis as described herein (depicted by the hatched arrows at the bottom of the chromatogram). The results from tube #7 from three chromatograms are depicted. The data are presented as % intensity of the signal as a function of the mass of the peptide divided by the charge (m/z). FIG. 5A, HC1 (Mr calculated 1268); FIG. 5B, HC2 (Mr calculated 1132); FIG. 5C, HC5 (Mr calculated 1053). The spectrum of HC1 has two major peaks: at 635.5 and at 424, and one minor peak at 1270 (1268+1). The peak at 635.5 represents the peptide (mass/charge) with two positive charges ([…]) i.e. [(1268+2=1270)]/2=635 whereas, the peak at 424 represents HC1 with three positive charges ([…]) i.e. [(1268+3=1271)]/3=424. […] HC5 spectrum has two major peaks: one at 528 and one at 352. The peak at 528 represents the peptide with two positive charges ([…]) i.e. [(1053+2=1055)]/2=527.5 while, the other peak represents HC5 with three positive charges ([M+31-]^2+) i.e. [(1053+3=1056)]/3=352. The minor peak at 1054 represents the peptide with one charge. It is noteworthy, that in gas phase the number of protons attached to each peptide depends on the number (quantity) of basic residues contained in each peptide. […] Thus, HC1 and HC5 are more likely to bind two or three protons than HC2. […]

Substance: DYDYQ [DYDYQ, Asp-Tyr-Asp-Tyr-Gln]
- concentration at which complete inhibition of prothrombinase occurred ([1]; FIG. 3A): 40 µM
- inhibition of prothrombinase activity with increasing peptide ([1]; FIG. 10A, up to 8000 nM): decrease in the activity of prothrombinase
- Ki ([1]; calculated from IC50 of 1.6 μM as in FIG. 2C legend, read-out: Ki for inhibition of prothrombinase): 850 nM
- IC50 ([1]; factor Va 4 nM, factor Xa 10 nM, prothrombin 350 nM, PCPS 10 μM, peptide preincubated with factor Va): 1600 nM
- interaction with immobilized thrombin (thrombin-agarose) [2]: eluted from the column with high-salt buffer; also recorded: interact with immobilized thrombin
